Results published in ChEMBL document CHEMBL1201862, “PubChem BioAssay data set” (2004).
“And” between values parts separate entries of the source, which are not always exact repeats. Equal values may be shown once. The source made the active and inactive calls.

What was measured:
[1] = target: DNA (cytosine-5)-methyltransferase 1 (Homo sapiens, UniProt P26358); assay: inhibition of DNA methylation by DNMT1 – biochemical, fluorescent molecular beacon, confirmation (AID 602386); type: functional
[2] = target: T1, Histone-lysine N-methyltransferase NSD2 (Homo sapiens, UniProt O96028); type: biochemical
T1 sequence (O96028 whole entry): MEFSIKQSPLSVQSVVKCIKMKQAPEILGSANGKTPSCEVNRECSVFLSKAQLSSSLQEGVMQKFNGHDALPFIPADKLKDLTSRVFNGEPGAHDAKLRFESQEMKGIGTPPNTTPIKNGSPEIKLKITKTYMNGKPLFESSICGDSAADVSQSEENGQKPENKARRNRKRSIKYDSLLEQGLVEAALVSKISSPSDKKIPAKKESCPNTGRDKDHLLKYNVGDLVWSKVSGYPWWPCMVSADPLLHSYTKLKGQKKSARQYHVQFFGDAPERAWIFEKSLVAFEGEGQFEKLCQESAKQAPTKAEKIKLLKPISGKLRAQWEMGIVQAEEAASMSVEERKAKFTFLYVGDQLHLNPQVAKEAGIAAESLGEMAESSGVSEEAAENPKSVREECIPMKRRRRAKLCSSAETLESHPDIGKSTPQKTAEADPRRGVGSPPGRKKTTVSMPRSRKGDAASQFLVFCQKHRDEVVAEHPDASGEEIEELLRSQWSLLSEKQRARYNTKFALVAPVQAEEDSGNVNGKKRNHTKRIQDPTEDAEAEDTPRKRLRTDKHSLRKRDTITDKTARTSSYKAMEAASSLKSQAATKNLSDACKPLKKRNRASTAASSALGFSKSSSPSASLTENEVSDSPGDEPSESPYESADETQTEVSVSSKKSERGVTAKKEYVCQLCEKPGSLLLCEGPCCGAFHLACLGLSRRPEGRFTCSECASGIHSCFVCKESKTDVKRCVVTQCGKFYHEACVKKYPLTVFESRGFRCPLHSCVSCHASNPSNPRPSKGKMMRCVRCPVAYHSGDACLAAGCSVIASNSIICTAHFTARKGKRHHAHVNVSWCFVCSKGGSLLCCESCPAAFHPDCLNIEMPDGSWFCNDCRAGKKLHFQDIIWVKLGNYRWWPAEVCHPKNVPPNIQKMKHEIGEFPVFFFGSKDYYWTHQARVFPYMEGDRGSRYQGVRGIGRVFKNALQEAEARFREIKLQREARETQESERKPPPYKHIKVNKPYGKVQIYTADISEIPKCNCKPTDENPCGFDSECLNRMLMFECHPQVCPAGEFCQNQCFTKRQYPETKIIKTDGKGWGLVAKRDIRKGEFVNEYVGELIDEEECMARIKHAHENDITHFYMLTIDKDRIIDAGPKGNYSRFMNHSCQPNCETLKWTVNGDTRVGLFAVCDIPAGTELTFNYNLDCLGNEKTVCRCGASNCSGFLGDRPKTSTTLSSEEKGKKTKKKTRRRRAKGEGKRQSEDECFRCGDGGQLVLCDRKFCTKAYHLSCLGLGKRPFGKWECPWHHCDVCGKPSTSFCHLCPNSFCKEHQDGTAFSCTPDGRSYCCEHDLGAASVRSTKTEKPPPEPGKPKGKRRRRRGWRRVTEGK

[3] = target: Serine/threonine-protein kinase PLK3 (Homo sapiens, UniProt Q9H4B4); type: functional
Sequence of Serine/threonine-protein kinase PLK3 (Q9H4B4 whole entry): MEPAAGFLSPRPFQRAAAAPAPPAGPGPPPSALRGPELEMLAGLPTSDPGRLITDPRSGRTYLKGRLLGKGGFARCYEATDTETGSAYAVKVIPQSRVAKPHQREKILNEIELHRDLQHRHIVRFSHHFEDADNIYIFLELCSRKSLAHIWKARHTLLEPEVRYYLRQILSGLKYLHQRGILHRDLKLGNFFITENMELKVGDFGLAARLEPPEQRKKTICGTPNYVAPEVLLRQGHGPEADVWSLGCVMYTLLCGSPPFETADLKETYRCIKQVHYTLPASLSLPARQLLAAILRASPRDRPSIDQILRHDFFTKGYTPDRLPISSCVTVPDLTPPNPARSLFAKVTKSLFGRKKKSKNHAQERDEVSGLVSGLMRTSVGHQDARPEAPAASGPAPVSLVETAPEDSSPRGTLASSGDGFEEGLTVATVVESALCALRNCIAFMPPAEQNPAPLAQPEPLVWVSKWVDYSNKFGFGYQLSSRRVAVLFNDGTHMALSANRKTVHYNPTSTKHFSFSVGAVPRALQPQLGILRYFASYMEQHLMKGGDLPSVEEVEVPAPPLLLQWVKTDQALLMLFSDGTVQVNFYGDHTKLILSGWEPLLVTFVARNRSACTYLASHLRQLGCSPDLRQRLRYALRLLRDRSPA

[4] = target: Casein kinase II subunit alpha (Homo sapiens, UniProt P68400); type: functional
Sequence of Casein kinase II subunit alpha (P68400 whole entry): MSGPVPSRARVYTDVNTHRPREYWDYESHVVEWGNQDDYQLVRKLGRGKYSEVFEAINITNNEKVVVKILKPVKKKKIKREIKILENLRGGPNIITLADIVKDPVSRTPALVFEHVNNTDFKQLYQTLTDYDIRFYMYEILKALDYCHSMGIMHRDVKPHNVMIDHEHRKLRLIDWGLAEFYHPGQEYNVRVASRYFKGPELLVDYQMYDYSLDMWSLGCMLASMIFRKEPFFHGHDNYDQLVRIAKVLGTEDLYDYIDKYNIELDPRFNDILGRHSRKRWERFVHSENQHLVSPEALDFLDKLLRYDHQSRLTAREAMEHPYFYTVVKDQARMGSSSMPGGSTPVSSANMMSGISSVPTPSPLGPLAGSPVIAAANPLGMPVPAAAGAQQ

[5] = target: Multidrug resistance protein CDR2 (Candida albicans (strain SC5314 / ATCC MYA-2876) (Yeast), UniProt P78595); assay: blockers of Nile Red efflux by Candida CDR2 – S. cerevisiae AD1-8u, singleplex, Cherry Pick2 set, dose response (AID 623994); type: functional; details: read-out: EC50_MICROM
[6] = target: T2, Apoptotic protease-activating factor 1 (Homo sapiens, UniProt O14727); assay: SAR analysis of small molecule Activators of Apaf-1 in a Fluorescent assay.; type: functional; details: read-out: EC50_Mean;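 note: caspase-3 cleavage of fluorogenic Rh110 DEVD substrate downstream of apoptosome activation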
T2 sequence (O14727 whole entry): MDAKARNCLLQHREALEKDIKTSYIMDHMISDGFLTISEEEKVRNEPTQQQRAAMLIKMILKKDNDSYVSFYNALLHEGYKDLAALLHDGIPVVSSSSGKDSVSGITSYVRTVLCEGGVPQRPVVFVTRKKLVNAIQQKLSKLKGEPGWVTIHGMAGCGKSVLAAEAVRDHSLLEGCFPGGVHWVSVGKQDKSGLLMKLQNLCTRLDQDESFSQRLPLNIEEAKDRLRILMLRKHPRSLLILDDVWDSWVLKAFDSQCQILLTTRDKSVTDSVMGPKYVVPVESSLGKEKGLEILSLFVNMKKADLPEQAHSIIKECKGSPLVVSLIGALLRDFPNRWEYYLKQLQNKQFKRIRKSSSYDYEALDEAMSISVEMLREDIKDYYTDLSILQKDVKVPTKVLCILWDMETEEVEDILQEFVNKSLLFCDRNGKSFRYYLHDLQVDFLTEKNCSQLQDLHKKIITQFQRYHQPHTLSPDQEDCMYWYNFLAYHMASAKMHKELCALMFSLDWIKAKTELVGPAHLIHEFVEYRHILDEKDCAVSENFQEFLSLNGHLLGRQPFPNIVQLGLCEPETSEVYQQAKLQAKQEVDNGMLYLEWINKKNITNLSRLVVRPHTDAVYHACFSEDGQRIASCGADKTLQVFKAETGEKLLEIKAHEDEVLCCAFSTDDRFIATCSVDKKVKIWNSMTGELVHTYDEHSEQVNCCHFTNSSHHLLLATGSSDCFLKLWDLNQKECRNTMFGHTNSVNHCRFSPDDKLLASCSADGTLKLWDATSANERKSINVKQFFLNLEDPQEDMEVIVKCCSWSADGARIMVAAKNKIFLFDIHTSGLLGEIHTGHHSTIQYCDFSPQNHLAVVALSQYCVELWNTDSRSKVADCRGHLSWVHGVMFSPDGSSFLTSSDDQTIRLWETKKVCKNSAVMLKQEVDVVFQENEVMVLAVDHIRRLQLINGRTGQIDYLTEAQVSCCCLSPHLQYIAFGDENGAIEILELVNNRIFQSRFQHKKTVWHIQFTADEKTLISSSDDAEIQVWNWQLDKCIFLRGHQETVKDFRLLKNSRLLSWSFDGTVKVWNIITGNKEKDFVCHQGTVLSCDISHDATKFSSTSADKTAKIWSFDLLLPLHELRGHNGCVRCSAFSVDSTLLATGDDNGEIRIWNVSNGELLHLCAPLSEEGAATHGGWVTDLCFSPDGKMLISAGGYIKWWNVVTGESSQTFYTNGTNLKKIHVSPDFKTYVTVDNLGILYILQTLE

[7] = target: DNA dC->dU-editing enzyme APOBEC-3G (Homo sapiens, UniProt Q9HC16); assay: inhibition of APOBEC3G ssDNA deamination – biochemical, fluorescence, single-stranded DNA substrate, SAR follow-up (AID 602136); type: functional; details: read-out: IC50_Mean
Sequence of DNA dC->dU-editing enzyme APOBEC-3G (Q9HC16 whole entry): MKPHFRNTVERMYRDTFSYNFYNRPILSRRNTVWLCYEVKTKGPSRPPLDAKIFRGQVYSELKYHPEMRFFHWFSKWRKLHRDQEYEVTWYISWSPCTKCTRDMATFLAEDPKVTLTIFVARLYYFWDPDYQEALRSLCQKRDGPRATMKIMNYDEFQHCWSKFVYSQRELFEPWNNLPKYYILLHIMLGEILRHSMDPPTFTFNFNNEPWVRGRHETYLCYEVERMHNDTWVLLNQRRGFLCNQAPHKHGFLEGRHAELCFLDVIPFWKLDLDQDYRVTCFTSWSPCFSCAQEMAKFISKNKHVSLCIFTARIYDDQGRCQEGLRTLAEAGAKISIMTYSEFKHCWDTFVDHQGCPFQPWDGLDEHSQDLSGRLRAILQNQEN

[8] = target: DNA dC->dU-editing enzyme APOBEC-3A (Homo sapiens, UniProt P31941); assay: SAR analysis of small molecule inhibitors of APOBEC3A DNA Deaminase via a fluorescence-based single-stranded DNA deaminase assay.; type: functional; details: read-out: IC50_Mean
Sequence of DNA dC->dU-editing enzyme APOBEC-3A (P31941 whole entry): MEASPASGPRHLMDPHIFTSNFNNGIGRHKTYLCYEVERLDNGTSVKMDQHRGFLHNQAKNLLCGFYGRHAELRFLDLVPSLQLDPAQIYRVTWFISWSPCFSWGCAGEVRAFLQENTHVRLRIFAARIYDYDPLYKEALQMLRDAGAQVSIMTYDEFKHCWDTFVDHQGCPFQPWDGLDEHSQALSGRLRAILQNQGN

[9] = target: Dual specificity tyrosine-phosphorylation-regulated kinase 1B (Homo sapiens, UniProt Q9Y463); assay: Navigating the Kinome. Panel member name: DYRK1B; type: functional
Sequence of Dual specificity tyrosine-phosphorylation-regulated kinase 1B (Q9Y463 whole entry): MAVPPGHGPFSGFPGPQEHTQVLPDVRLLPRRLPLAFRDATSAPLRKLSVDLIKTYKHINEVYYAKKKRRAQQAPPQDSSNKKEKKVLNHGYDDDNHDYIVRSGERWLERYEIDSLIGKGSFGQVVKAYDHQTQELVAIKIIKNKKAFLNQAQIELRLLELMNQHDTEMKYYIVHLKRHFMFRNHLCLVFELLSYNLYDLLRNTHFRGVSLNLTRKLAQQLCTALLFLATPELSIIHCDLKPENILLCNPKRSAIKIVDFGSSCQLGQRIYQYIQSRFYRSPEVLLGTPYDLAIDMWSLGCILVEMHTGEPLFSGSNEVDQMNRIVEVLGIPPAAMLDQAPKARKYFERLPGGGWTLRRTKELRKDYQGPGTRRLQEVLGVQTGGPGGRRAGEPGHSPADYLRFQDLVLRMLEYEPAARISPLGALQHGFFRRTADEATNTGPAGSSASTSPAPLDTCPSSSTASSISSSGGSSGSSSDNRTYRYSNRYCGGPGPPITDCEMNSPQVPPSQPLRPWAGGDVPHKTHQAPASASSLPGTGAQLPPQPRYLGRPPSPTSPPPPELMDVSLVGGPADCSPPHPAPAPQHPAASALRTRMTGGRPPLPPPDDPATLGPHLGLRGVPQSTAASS

[10] = target: Serine/threonine-protein kinase 3 (Homo sapiens, UniProt Q13188); type: functional;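 note: measured as one member of a kinome-wide kinase panel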
Sequence of Serine/threonine-protein kinase 3 (Q13188 whole entry): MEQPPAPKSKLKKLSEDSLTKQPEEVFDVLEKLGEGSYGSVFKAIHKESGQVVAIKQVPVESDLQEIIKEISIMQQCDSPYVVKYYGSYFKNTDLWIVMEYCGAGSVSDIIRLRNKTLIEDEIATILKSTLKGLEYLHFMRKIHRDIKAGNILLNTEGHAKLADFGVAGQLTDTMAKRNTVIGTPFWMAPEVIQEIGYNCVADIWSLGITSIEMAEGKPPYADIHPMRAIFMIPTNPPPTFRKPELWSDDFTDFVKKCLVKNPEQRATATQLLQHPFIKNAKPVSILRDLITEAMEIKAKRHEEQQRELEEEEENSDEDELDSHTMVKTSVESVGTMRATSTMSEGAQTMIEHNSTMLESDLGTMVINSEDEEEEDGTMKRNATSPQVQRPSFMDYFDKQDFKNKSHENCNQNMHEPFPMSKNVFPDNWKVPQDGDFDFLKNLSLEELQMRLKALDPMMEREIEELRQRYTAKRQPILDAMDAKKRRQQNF

[11] = THP-1 cell cytotoxicity, cytotoxicity control, set 4 (AID 504911); type: functional; details: Mycobacterium tuberculosis
[12] = THP-1 cell cytotoxicity, dose response, cytotoxicity control, set 3 (AID 504852); type: functional; details: Mycobacterium tuberculosis
[13] = Vero cell cytotoxicity, dose response, cytotoxicity control for M. tuberculosis growth inhibitor project, Vero cells, purified and synthesized compounds, set 4 (AID 504854); type: functional; details: Mycobacterium tuberculosis
[14] = target: Ras and Rab interactor 1/Tyrosine-protein kinase ABL1 (Homo sapiens, UniProt P00519+Q13671); type: functional;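 note: biochemical TR-FRET dose-response test measuring inhibition of binding between Rin1 and Abl proteins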
[15] = target: T3, Mitochondrial peptide methionine sulfoxide reductase (Bos taurus, UniProt P54149); assay: Absorbance-based biochemical high throughput dose response assay for activators of Methionine sulfoxide reductase A (MsrA).; type: functional
T3 sequence (P54149 whole entry): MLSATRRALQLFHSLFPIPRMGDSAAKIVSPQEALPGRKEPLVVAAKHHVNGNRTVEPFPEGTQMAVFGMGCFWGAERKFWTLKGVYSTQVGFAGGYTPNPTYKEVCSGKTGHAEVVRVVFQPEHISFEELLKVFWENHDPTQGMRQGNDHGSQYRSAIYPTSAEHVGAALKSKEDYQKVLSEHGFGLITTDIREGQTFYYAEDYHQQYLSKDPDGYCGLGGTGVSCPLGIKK

[16] = target: Mitogen-activated protein kinase 13 (Homo sapiens, UniProt O15264); type: functional
Sequence of Mitogen-activated protein kinase 13 (O15264 whole entry): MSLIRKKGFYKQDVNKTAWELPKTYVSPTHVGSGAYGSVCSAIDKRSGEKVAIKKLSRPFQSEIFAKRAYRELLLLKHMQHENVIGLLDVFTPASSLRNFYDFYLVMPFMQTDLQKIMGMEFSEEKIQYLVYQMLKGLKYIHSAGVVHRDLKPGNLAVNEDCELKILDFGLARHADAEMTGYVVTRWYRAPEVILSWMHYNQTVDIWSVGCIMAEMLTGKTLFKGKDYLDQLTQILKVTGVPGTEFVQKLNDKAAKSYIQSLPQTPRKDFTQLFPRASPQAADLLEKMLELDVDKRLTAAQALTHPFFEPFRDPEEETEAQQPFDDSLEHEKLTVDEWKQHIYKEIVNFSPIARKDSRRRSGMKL

Sequence of DNA (cytosine-5)-methyltransferase 1 (P26358 whole entry): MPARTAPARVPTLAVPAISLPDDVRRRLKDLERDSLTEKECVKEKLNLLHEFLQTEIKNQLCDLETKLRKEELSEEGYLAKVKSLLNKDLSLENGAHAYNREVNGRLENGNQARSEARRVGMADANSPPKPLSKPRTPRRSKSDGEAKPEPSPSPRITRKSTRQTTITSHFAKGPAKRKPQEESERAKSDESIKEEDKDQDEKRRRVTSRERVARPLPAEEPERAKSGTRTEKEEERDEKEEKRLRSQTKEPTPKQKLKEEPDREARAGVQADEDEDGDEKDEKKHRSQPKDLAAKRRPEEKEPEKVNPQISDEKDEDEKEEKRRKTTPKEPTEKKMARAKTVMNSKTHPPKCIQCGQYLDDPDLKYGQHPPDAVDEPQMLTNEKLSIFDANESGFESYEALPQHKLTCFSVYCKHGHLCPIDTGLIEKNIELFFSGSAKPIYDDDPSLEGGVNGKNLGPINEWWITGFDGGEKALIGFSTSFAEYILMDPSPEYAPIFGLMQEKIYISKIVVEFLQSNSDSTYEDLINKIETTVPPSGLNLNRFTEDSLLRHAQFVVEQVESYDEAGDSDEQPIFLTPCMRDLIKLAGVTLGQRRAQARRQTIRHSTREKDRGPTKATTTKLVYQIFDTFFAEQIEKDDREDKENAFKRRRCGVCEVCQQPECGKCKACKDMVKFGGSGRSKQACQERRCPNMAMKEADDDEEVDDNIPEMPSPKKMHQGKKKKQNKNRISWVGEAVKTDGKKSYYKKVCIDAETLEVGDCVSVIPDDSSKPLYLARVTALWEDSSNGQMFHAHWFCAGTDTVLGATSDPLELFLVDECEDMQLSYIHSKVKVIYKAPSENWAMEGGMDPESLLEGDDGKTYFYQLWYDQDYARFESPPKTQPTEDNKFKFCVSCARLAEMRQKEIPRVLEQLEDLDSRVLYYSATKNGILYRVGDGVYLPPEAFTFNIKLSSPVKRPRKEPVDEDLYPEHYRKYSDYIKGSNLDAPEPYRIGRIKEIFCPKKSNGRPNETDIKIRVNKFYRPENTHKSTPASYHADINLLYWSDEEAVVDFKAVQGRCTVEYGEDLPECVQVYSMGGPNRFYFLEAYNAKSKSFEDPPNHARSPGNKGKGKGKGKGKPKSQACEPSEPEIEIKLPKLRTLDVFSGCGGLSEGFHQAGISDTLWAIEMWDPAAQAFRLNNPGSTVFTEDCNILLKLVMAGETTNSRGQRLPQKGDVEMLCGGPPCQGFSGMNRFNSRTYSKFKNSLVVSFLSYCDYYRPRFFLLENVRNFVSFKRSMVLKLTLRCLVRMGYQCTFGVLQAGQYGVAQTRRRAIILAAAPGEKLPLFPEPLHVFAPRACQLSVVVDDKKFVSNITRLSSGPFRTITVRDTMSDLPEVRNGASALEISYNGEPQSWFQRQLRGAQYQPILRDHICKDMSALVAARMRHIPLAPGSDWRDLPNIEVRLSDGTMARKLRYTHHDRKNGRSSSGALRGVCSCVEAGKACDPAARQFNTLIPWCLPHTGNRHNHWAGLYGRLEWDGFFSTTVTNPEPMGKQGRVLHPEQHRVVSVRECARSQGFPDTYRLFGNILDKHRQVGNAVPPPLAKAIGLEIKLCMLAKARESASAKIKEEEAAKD

N=C1/C(=C/c2coc3ccccc3c2=O)C(=O)N=C2SC(c3ccco3)=NN12
IC50 [1]: 11.6 µM (active)
AC50 [2]: 4.93 µM (active)

Nc1csc(Nc2ccccc2)n1
Ki [3]: 2.51 µM (active)
Ki [4]: 10 µM (active)

O=C(NCCC1=CCCCC1)C1CCC(CNc2[nH]c(=S)nc3ccccc23)CC1 (stereo not drawn)
EC50 [5]: 72.6 µM (active)

COc1ccc(C)c(NCC(C)C(=O)O)c1 (stereo not drawn)
EC50 [6]: > 100 µM (inactive)

O=C(NC1CCCCC1)c1nn2c(C(F)(F)F)cc(-c3ccc(Br)cc3)nc2c1Cl
IC50 [7]: > 99 µM (inactive)
IC50 [8]: > 99 µM (inactive)

CC(Oc1cc(-c2cnn(C3CCNCC3)c2)cnc1N)c1c(Cl)ccc(F)c1Cl (stereo not drawn)
Ki [9]: > 2.51 µM (inactive)
Ki [10]: 3.16 µM (active) and 794 nM (active)

CC(Sc1nc2ccccc2c(=O)[nH]1)C(=O)NC1CCCCC1 (stereo not drawn)
CC50 [11]: > 100 µM (active)
CC50 [12]: > 100 µM (active)
CC50 [13]: > 100 µM (active)

CC[C@]12c3[nH]c4ccc(OC)cc4c3CCN1C(=O)C(CC(=O)NCc1cccc(C(F)(F)F)c1)C[C@@H]2C(=O)N1CCN(C(=O)c2ccco2)CC1 (stereo partly drawn)
IC50 [14]: 20.1 µM (inactive)

O=c1[nH]c(=S)[nH]cc1Oc1ccc(Cl)cc1
EC50 [15]: > 104 µM (inactive)

CCOc1nc(NC(=O)Cc2cc(OC)ccc2OC)cc(N)c1C#N
Ki [16]: > 7.94 µM (inactive)

c1cncc(-c2nc3sc4c(c3c3nncn23)CCCC4)c1
IC50 [7]: > 99 µM (inactive)
IC50 [8]: > 99 µM (inactive)
